# From ChEMBL document CHEMBL1201862, “PubChem BioAssay data set” (2004)
# The source made the active and inactive calls.
# Legend:
# [1] = biological target: T1, E3 ubiquitin-protein ligase XIAP (Homo sapiens, UniProt P98170); experiment: small molecules displacing peptide from XIAP – biochemical, IAP family, fluorescence polarization (AID 1018); type: functional
# [2] = biological target: T1, E3 ubiquitin-protein ligase XIAP; experiment: Counter Screen using XIAP-Bir3 for Chemical Antagonists of Bir1/2 domains of IAP-family anti-apoptotic proteins. [Related pubchem assays (depositor defined):AID1018, AID1449, AID1514, AID1638, AID1749, AID1750, AID488957, AID488963]
# [3] = biological target: DNA damage-inducible transcript 3 protein (Mus musculus, UniProt P35639); type: functional, Cricetulus griseus
# Chain of DNA damage-inducible transcript 3 protein (P35639 whole entry): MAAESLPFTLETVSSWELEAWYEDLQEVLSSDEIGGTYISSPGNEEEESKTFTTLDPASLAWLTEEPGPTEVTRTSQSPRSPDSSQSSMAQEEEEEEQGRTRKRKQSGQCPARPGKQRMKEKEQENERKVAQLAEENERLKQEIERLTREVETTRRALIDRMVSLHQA
# SUMO-activating enzyme = SUMO-activating enzyme (Homo sapiens, UniProt Q9UBT2); experiment: blockers of UBC9-mediated SUMO conjugation – biochemical, AlphaScreen, SUMOylation inhibitor project, confirmation (AID 2018); type: functional
# Chain of SUMO-activating enzyme (Q9UBE0 whole entry): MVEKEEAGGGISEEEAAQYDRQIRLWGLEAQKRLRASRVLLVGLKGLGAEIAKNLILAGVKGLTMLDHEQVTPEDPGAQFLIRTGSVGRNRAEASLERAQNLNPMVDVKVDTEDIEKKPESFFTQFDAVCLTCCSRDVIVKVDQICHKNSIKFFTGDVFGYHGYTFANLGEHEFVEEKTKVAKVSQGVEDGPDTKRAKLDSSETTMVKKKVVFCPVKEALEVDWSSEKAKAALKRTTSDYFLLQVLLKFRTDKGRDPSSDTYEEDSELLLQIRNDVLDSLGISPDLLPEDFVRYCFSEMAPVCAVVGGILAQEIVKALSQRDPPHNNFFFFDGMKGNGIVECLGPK
# Chain of SUMO-activating enzyme (Q9UBT2 whole entry): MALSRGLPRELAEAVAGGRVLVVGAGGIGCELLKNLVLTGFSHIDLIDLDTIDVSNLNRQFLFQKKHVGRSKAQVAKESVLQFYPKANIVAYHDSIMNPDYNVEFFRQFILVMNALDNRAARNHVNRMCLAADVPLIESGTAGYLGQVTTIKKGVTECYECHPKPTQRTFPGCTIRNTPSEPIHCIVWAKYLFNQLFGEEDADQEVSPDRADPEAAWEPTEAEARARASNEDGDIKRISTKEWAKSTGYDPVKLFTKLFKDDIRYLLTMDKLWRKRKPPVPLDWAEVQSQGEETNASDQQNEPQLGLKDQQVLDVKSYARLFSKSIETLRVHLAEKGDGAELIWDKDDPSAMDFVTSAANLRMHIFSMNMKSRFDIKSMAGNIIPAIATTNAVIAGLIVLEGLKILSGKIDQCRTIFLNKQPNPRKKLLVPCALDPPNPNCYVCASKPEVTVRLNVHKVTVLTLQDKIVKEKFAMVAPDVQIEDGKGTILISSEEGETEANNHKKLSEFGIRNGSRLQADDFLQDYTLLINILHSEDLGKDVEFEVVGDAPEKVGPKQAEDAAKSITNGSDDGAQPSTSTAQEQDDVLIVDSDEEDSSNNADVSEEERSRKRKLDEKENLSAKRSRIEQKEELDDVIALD
# Trypsin = Trypsin (Sus scrofa, UniProt P00761); experiment: trypsin protease activity blockade – biochemical, quenched peptide fluorescence, cherry-pick, selectivity assay for Rce1 protease inhibitor project, dose response (AID 488789)
# Chain of Trypsin (P00761 whole entry): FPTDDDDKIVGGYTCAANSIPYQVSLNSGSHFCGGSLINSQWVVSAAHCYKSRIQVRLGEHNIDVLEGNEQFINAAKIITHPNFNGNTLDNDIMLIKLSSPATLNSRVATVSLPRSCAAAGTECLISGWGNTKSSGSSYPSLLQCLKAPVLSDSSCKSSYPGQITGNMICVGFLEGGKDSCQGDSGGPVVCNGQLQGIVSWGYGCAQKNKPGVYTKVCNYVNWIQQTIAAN
# CAAX prenyl protease 2 = biological target: T2, CAAX prenyl protease 2 (Saccharomyces cerevisiae S288c, UniProt Q03530); type: biochemical
# T2 sequence (Q03530 whole entry): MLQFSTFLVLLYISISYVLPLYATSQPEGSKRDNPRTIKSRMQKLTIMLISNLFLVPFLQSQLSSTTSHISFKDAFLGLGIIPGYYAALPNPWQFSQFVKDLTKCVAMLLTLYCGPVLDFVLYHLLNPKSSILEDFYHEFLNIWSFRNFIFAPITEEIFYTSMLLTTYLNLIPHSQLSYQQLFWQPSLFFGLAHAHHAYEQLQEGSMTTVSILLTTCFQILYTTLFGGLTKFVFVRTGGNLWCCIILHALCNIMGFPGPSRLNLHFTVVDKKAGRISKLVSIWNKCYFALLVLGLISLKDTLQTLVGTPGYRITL
# [4] = biological target: T3, Short transient receptor potential channel 4 (Mus musculus, UniProt Q9QUQ5); experiment: potentiation of DAMGO-evoked TRPC4 calcium signal – cell-based, HEK293 TRPC4/mu-opioid, Fluo-4 calcium, EC20 DAMGO, dose response (AID 434941); type: functional
# T3 sequence (Q9QUQ5 whole entry): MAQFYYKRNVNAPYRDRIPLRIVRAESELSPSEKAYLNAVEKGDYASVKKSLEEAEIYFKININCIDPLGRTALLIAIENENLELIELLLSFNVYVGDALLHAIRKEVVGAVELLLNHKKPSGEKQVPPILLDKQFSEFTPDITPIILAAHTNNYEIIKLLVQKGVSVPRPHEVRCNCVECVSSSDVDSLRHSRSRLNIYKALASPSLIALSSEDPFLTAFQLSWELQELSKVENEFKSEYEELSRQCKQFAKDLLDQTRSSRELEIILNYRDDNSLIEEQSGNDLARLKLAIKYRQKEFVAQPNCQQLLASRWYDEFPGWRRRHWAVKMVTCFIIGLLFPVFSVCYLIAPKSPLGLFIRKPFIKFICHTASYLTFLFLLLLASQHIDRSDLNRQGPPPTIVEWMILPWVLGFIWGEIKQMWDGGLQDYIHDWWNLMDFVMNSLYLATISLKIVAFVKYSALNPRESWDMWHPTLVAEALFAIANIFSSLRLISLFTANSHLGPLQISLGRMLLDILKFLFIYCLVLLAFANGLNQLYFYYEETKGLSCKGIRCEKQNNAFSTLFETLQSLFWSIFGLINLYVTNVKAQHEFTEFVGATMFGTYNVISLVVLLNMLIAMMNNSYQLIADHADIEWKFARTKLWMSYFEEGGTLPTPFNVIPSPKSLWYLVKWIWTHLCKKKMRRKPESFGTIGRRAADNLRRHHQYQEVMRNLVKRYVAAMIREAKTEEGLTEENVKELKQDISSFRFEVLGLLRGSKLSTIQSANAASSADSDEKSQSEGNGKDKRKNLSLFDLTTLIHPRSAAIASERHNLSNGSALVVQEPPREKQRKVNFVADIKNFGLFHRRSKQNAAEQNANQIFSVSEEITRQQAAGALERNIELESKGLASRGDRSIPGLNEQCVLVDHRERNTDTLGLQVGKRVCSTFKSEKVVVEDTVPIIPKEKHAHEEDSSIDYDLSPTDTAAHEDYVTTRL
# Cytochrome P450 1A2 = biological target: T4, Cytochrome P450 1A2 (Homo sapiens, UniProt P05177);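 also: PubChem cytochrome P450 panel assay, CYP1A2 panel member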
# T4 sequence (P05177 whole entry): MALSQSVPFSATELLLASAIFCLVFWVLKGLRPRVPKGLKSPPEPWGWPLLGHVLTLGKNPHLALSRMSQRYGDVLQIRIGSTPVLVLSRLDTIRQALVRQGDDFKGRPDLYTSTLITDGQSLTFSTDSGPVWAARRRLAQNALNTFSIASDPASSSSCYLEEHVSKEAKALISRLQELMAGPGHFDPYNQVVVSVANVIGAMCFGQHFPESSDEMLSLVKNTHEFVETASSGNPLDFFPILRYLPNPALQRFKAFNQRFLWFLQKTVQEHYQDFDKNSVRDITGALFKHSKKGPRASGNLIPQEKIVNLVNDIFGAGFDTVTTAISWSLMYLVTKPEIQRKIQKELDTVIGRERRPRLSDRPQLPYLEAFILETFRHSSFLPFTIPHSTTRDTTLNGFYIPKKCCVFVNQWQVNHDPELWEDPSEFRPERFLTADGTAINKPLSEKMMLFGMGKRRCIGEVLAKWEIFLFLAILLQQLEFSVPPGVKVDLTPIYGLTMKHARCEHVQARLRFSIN
# Cytochrome P450 2C9 = Cytochrome P450 2C9 (Homo sapiens, UniProt P11712)
# Chain of Cytochrome P450 2C9 (P11712 whole entry): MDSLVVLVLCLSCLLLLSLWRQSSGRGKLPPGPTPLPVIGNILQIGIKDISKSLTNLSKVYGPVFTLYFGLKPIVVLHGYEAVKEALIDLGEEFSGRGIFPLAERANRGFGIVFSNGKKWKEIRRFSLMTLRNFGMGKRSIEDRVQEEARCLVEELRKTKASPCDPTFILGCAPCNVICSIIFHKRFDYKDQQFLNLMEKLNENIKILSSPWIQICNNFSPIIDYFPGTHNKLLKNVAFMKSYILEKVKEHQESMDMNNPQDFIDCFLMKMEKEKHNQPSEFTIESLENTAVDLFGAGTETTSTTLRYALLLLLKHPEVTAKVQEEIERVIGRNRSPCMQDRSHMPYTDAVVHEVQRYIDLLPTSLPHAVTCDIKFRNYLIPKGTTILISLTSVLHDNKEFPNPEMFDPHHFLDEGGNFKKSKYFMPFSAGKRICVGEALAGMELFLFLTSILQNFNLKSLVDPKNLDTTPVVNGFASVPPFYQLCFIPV
# [5] = biological target: DNA dC->dU-editing enzyme APOBEC-3G (Homo sapiens, UniProt Q9HC16); type: functional;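 also: Dose-response counterscreen measuring inhibition of APOBEC3G DNA deaminase activity, run while confirming APOBEC3A inhibitors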
# Chain of DNA dC->dU-editing enzyme APOBEC-3G (Q9HC16 whole entry): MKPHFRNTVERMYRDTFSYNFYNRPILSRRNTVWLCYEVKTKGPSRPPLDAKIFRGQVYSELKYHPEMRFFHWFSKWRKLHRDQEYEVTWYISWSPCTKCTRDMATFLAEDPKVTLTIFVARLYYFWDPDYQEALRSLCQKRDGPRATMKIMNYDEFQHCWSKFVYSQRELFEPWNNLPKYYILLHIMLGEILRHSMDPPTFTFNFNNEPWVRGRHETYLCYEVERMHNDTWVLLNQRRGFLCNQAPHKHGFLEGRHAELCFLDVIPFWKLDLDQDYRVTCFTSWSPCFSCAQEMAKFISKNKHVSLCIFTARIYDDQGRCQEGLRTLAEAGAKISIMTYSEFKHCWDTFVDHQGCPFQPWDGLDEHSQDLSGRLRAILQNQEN
# [6] = biological target: DNA dC->dU-editing enzyme APOBEC-3A (Homo sapiens, UniProt P31941); experiment: Dose Response confirmation of small molecule APOBEC3A DNA Deaminase Inhibitors via a fluorescence-based single-stranded DNA deaminase assay. [Related pubchem assays (depositor defined):AID493011, AID493024]; type: functional
# Chain of DNA dC->dU-editing enzyme APOBEC-3A (P31941 whole entry): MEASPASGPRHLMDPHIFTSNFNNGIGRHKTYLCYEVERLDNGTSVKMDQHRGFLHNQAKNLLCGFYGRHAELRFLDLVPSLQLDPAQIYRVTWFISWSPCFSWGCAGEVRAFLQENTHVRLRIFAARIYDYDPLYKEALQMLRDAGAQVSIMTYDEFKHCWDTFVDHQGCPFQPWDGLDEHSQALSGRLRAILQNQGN
# Cytochrome P450 2C19 = Cytochrome P450 2C19 (Homo sapiens, UniProt P33261); experiment: Cytochrome panel assay with activity outcomes. Panel member name: p450-cyp2c19 Compounds with AC50 equal or less than 10 uM are considered active; type: functional; settings: read-out: AC50
# Chain of Cytochrome P450 2C19 (P33261 whole entry, the tested form may be a part): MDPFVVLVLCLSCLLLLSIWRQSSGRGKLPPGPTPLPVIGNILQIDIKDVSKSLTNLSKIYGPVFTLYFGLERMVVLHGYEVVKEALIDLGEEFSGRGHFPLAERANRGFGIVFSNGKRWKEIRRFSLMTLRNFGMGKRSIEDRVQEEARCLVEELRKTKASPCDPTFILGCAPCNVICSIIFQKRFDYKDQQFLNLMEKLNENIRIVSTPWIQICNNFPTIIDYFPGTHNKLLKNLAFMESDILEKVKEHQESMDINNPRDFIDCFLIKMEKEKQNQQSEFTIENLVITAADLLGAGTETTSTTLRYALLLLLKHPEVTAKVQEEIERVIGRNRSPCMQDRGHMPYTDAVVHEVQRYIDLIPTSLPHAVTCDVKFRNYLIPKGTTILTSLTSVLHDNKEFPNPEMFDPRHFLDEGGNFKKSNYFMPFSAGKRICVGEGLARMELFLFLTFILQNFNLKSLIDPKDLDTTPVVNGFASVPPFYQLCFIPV
# [7] = biological target: T5, Carboxy-terminal domain RNA polymerase II polypeptide A small phosphatase 1 (Homo sapiens, UniProt Q9GZU7); experiment: CTDSP1 inhibitors, concentration-response, biochemical, absorbance readout, ultra-high-throughput screen actives (AID 540297); type: functional
# T5 sequence (Q9GZU7 whole entry): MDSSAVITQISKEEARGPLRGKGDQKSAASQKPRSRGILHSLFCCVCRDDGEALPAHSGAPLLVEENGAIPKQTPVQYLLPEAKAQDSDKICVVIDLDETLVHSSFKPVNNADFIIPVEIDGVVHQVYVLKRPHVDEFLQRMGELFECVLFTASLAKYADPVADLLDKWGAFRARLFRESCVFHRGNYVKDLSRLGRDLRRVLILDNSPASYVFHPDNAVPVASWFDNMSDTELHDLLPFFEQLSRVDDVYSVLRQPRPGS
# [8] = biological target: T3, Short transient receptor potential channel 4; experiment: calcium entry via TRPC4 opening agents – cell-based, HEK293 TRPC4/mu-opioid, Fluo-4 calcium, dose response (AID 434937); type: functional
# [9] = NIH-3T3 fibroblast cytotoxicity, dose response, cytotoxicity control, cell-based, fluorescence, Alamar Blue, secondary assay (AID 2327); type: functional;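 also: NIH-3T3 mouse fibroblasts cultured with fluconazole at 8 µg/mL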
# Protein Wnt-3a = Protein Wnt-3a (Mus musculus, UniProt P27467); experiment: antagonism of Wnt3a pathway luciferase reporter – Wnt-LIGHT cells, luminescence, selectivity assay for Gli-SUFU antagonist project, dose response (AID 651570); type: functional; settings: read-out: IC50_Mean;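 also: Wnt-LIGHT reporter cells stimulated with conditioned medium from Wnt3a-producing cells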
# Chain of Protein Wnt-3a (P27467 whole entry): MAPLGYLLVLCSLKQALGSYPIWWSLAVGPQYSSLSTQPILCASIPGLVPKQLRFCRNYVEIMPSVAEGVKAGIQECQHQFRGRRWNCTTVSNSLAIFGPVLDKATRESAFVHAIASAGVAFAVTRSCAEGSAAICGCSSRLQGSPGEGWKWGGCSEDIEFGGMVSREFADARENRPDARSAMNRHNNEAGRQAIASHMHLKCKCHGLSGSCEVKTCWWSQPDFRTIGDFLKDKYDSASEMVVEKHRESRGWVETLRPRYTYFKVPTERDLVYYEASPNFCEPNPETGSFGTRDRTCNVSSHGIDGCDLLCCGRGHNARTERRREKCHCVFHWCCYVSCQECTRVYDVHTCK
# [10] = fluconazole-exposed Candida albicans growth modulators – fluorescence, retest, confirmation (AID 2467); type: functional, cell-based
# INS1 = experiment: INS-1E survival protection against cytokine death – cell-based, luminescence, retest, dose response (AID 449756); type: functional; settings: Rattus norvegicus;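 also: cell death triggered by IL-1 beta plus TNF-alpha plus IFN-gamma mixture; protective hits raise ATP signal compared with cytokine alone wells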
# Vero = experiment: cells; type: functional; settings: Chlorocebus sabaeus
# [11] = biological target: T6, Microphthalmia-associated transcription factor (Homo sapiens, UniProt O75030); experiment: reducers of TRPM1 reporter luminescence, concentration series – cell-based, SK-MEL-5, cherry-picked, set 3, MITF inhibitor project, dose response (AID 493073); type: functional;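 also: SK-MEL-5 melanoma cells with luciferase driven by the MITF target TRPM1 promoter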
# T6 sequence (O75030 whole entry): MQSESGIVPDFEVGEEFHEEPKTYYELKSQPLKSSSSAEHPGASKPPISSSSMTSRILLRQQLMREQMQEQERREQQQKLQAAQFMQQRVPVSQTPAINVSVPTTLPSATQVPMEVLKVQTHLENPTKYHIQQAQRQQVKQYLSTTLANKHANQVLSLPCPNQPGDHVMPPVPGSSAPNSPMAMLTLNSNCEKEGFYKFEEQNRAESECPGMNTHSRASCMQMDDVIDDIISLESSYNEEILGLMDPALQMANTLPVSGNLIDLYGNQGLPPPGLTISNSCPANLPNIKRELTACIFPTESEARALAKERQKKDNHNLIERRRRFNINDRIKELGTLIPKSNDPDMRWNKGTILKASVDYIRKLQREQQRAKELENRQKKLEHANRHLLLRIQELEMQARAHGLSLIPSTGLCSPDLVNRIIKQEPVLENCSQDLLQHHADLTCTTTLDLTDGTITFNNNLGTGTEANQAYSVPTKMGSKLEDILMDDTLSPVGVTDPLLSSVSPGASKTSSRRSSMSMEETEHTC
# [12] = NIH3T3 cell viability loss – ATP luminescence, mouse fibroblasts, counter-screen, dose response (AID 2010); type: functional, cell-based;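 also: cells exposed to compound for about 90 hours before reading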
# [13] = Trypanosoma cruzi growth suppression in host cells – NIH3T3 host cells, beta-gal luminescence, confirmation (AID 2044); type: functional, cell-based;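 also: intracellular parasites grown in NIH/3T3 mouse fibroblasts as host cells; luminescent beta-galactosidase reporter signal from transgenic T. cruzi replicating inside host cells; inhibitors lower the luminescence signal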
# HEK293 [14] = experiment: inhibition of NOD1-driven NF-kB reporter – cell-based, luminescence, uHTS, primary screen (AID 1578); type: functional; settings: Homo sapiens
# HEK293 [15] = experiment: cells; type: functional, cell-based; settings: Homo sapiens
# HEK293 [16] = experiment: cells; type: functional, cell-based; settings: Homo sapiens; remark: listed apart in the source
# HEK293 [17] = experiment: NOD2 signaling inhibitors in MDP-stimulated cells, cell-based, uHTS, luminescence (AID 2001); type: functional; settings: Homo sapiens
# T1 sequence (P98170 whole entry): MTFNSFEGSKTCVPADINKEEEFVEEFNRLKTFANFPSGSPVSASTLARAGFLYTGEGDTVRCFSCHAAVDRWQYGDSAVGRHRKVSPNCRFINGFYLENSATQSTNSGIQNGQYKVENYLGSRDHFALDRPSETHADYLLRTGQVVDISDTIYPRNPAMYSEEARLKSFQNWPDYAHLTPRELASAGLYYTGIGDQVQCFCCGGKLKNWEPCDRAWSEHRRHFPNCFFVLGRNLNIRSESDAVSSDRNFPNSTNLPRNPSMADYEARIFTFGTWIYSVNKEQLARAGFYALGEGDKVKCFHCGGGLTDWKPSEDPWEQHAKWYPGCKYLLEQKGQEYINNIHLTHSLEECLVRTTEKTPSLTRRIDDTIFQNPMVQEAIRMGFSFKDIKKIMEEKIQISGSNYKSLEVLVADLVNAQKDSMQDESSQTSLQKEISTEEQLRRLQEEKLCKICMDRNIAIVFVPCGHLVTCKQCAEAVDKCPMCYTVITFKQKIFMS
structure (smiles),measurement,setting,value
Nc1c(NC2CCCCC2)c2ccccc2oc1=O,IC50,[1],> 100 µM (not active)
same,IC50,[2],> 100 µM (inactive)
Cc1ccc(/C=C2\SC(=S)N(CCC(=O)NNS(=O)(=O)c3ccc(C)cc3)C2=O)cc1,IC50,[1],> 100 µM (not active)
same,IC50,[2],> 100 µM (inactive)
O=C(NNC(=O)c1cccc2ccccc12)c1ccc(-c2ccccc2)cc1,Absolute IC50 (CHOP),[3],10 µM
CCc1cc(=O)oc2c3c(cc(OCC(=O)NCCCCCC(=O)O)c12)OC(C)(C)CC3,IC50,SUMO-activating enzyme,> 100 µM (inactive)
same,AC50,Trypsin,4.32 µM (active)
same,AC50,CAAX prenyl protease 2,14 µM (active)
Cc1ccc(S(=O)(=O)N2CCC(N3CCN(C)CC3)CC2)cc1Cl,EC50,[4],0.94 µM (active)
C[C@@]12CC[C@@H]3c4ccc(O)cc4CC[C@H]3[C@H]1CC[C@H]2O,AC50,Cytochrome P450 1A2,5.01 µM (inconclusive)
same,AC50,Cytochrome P450 2C9,inconclusive
C[C@@H]1CC2(CCCC[N+]2(C)C)C[C@H]1C,IC50,[5],3.7 µM (active)
same,IC50,[6],1.61 µM (active)
Nc1c(C(=O)NCc2ccco2)c2nc3ccccc3nc2n1CCc1ccc(F)cc1,IC50,SUMO-activating enzyme,34.7 µM (active)
O=C(NNC(=O)c1sc2ccccc2c1Cl)Nc1ccc(Cl)cc1,AC50,Cytochrome P450 2C19,3.55 µM (inconclusive)
same,AC50,Cytochrome P450 2C9,inconclusive
same,IC50,SUMO-activating enzyme,25.8 µM (active)
CCOc1ccc(OCCCC(=O)N2CCN(S(=O)(=O)c3ccc(Cl)cc3)CC2)cc1,IC50,[5],2.23 µM (active)
same,IC50,[7],6.6 µM (active)
same,IC50,[6],2.04 µM (active)
Nc1cc(N2CCNCC2)ccc1[N+](=O)[O-],EC50,[8],1.19 µM (active)
same,EC50,[4],0.19 µM (active)
CCN(CC)c1ccc(S(=O)(=O)N2CCOCC2)cc1NC(=O)CSc1cccc[n+]1[O-],IC50,[1],> 100 µM (not active)
same,IC50,[2],> 100 µM (inactive)
CCOc1ccc(N2C(=O)/C(=C\NNc3nc(C)cc(C)n3)c3ccccc3C2=O)cc1,EC50,[9],47.9 µM (active)
same,IC50,Protein Wnt-3a,11.2 µM (active)
same,EC50,[10],> 38 µM (not active)
same,AC50,INS1,2.24 µM (active)
same,CC50,Vero,10.3 µM (active)
same,AC50,[11],3.48 µM (active)
O=[N+]([O-])c1ccc(/C=N/Nc2nc(N3CCCCC3)nc(N3CCCCC3)n2)o1,EC50,[12],> 60 µM (inconclusive)
same,EC50,[13],0.225 µM (active)
same,EC50,[4],5.96 µM (active)
COc1ccccc1-c1nnc(NC(=O)c2ccc(S(=O)(=O)N(C)Cc3ccccc3)cc2)o1,Absolute IC50 (CHOP),[3],10 µM
Cc1cccc(NC(=O)c2cccc(NS(=O)(=O)c3ccc(Cl)cc3)c2)c1,EC50,HEK293 [14],9.39 µM (active)
same,IC50,HEK293 [15],> 20 µM (inactive)
same,IC50,HEK293 [16],> 20 µM (inactive)
same,IC50,HEK293 [17],12.6 µM (inactive)
